Experimental data published in PMC11121470, “Leveraging the Fragment Molecular Orbital and MM-GBSA Methods in Virtual Screening for the Discovery of Novel Non-Covalent Inhibitors Targeting the TEAD Lipid Binding Pocket” (International Journal of Molecular Sciences, 2024).
Entries after “also recorded” stand apart in the source; their conditions may differ. Where two headings read alike, the source gives them in different places. Values belong to the compound of their own block, whether it stands above or below them.

Experiments:
TEAD [1] = assay: TEAD luciferase reporter assay in MCF7 cells; format: cell-based; conditions: for IC50: Homo sapiens
Experimental: (§1) Stable cell lines, namely MCF7 cell TEAD luciferase cells, were maintained in Dulbecco’s modified Eagle medium (DMEM) containing 10% fetal bovine serum, penicillin, and streptomycin, at 37 °C, in a humidified incubator containing 5% CO2. To construct an MCF7-TEAD luciferase stable cell line, MCF7 cells were infected with a TEAD luciferase reporter lentivirus using polybrene (Millipore, Burlington, MA, USA) and then selected with puromycin. The stable cell lines NCI-[…] and NCI-H28 were maintained in Roswell Park Memorial Institute (RPMI) medium.
TEAD luciferase reporter MCF7 cells were seeded into 96-well white plates (3 × 10^4 cells per well). The medium was replaced with DMEM without fetal bovine serum (FBS; 100 μL per well), and the cells were treated with various concentrations of compounds (0.001–10 μmol/L) for 24 h. Fifty microliters of the medium containing compounds was removed from each well, following which 50 μL of FBS in 10% DMEM was added to the cells and incubated for 6 h. Luciferase activity was measured using the One-Glo® Luciferase Assay Kit from Promega (Madison, WI, USA). A small portion of the medium was removed (60 μL) from each well, and 40 μL of One-Glo® Luciferase assay buffer containing reagent was added in its place. Luminescence was measured using a VICTOR® Nivo™ multimode microplate reader (PerkinElmer, Waltham, MA, USA) and normalized to the results of the vehicle.

H226 cancer cell = assay: Cell viability assay (CellTiter-Glo 2.0), H226; format: cell-based; conditions: Homo sapiens, NCI-H226, 144 h, H226 cells, n = 3
Experimental: as §1
(§2) Cells were seeded into 96-well plates (1 × 10^3 cells per well) and changed to RPMI with 1% FBS, and then treated with various concentrations (0.0001–10 μmol/L) of compounds (MGH-CP1, BC-010, BC-011, and BC-013) for 144 h. The medium was replaced with 1% FBS + RPMI containing compounds every 3 d. Cell viability was measured using the CellTiter-Glo® 2.0 Cell Viability Assay Kit from Promega. Before the viability was measured, the drug treatment medium was removed and replaced with 50 μL of FBS-free RPMI and 50 μL of CellTiter-Glo® 2.0 reagent. The cells with medium replacement were incubated for 1 h at room temperature, to prevent exposure to light. Luminescence was measured using a VICTOR® Nivo™ multimode microplate reader (PerkinElmer) and normalized to the results of the vehicle.

H28 cancer cell line = assay: Cell viability assay (CellTiter-Glo 2.0), H28; format: cell-based; conditions: for IC50: Homo sapiens, NCI-H28, H28 cells, 144 h, n = 3
Experimental: as §1, §2

[2] = tested on: TEAD target genes Ctgf and Cyr61; assay: mRNA expression of TEAD target genes by qRT-PCR in H226 cells; format: cell-based; conditions: 24 h, 1, 5 and 10 μM, n = 3
Experimental: H226 cells were seeded at a density of 1 × 10^5 cells/well into a 12-well plate. After treatment with various concentrations (1, 5, and 10 μM) of the compounds, the cells were incubated at 37 °C for 24 h. RNA extraction was performed using the RNeasy Plus Mini Kit (QIAGEN, Hilden, Germany), as per the manufacturer’s protocol. Extracted RNA was quantified using a NanoDrop™ One Microvolume UV–Vis Spectrophotometer (Thermo Fisher, Waltham, MA, USA). cDNA was synthesized using 1000 ng of quantified RNA and an iScript™ cDNA Synthesis Kit (Bio-Rad, Hercules, CA, USA). qRT-PCR was carried out using PowerUp™ SYBR™ Green Master Mix (Thermo Fisher) and primers (hCTGF-F: CCAATGACAACGCCTCCTG, hCTGF-R: TGGTGCAGCCAGAAAGCTC, hCYR61-F: […], hCYR61-R: […], hβ-actin-F: […], hβ-actin-R: […]), with the results normalized to those of the vehicle.

TEAD2 = molecular target: TEAD2; set-up: method as in PMID 26592798; conditions: reference compounds of Figure 1; cited from earlier work
TEAD [3] = conditions: cited from earlier work
TEAD [4] = conditions: cited from earlier work; remark: listed apart in the source
[5] = 1 nM to 10 μM, n = 2, read-out: IC50, TEAD reporter luciferase assay
[6] = reference compounds of Figure 1
[7] = reference compounds of Figure 1 and FMO section
[8] = Vivace compounds, ref 45 (WO202097389A1)

IC50 (TEAD [1]; [5]): 3.68 µM
IC50 (TEAD [1]; read-out: IC50, reporter assay): 3.7 µM
Structure (SMILES): COc1ccc(C(=O)NN)cc1COc1ccc(Cl)c(C)c1 [BC-001]

IC50 (TEAD [1]; [5]): 2.89 µM
Structure (SMILES): COc1ccc(C(=O)NN)cc1COc1ccc(Br)cc1 [BC-002]
TEAD reporter luciferase activity (in words) (TEAD [1]): retained the same activity as BC-001

IC50 (TEAD [1]; [5]): 3.99 µM
Structure (SMILES): COc1ccc(C(=O)NN)cc1COc1ccc(Cl)cc1 [BC-003]
TEAD reporter luciferase activity (in words) (TEAD [1]): retained the same activity as BC-001

IC50 (TEAD [1]; 1 nM to 10 μM, n = 2, printed in figure as 10uM<, read-out: IC50, TEAD reporter luciferase assay): > 10 µM
Structure (SMILES): COc1ccc(C=C(C#N)C#N)cc1COc1cc(C)c(Cl)c(C)c1 [BC-004]
TEAD reporter luciferase activity (in words) (TEAD [1]): did not exhibit any activity

Structure (SMILES): NNC(=O)c1cccc(COc2ccc(Cl)cc2)c1 [BC-005]
TEAD reporter luciferase activity (in words) (TEAD [1]): increased

IC50 (TEAD [1]; [5]): 1.52 µM
Structure (SMILES): COc1ccc(C(=O)NN)cc1COc1ccccc1 [BC-006]

IC50 (TEAD [1]; [5]): 5.61 µM
Structure (SMILES): COc1ccc(C(N)=O)cc1COc1ccccc1 [BC-007]

IC50 (TEAD [1]; [5]): > 10 µM
Structure (SMILES): COc1ccc(C(=O)O)cc1COc1ccccc1 [BC-008]

IC50 (TEAD [1]; [5]): 2.61 µM
Structure (SMILES): COC(=O)c1ccc(OC)c(COc2ccccc2)c1 [BC-009]

IC50 (TEAD [1]; [5]): 0.768 µM
IC50 (H226 cancer cell): 0.93 µM
IC50 (H28 cancer cell line): 9.1 µM
Structure (SMILES): COc1ccc(C(=O)NN)cc1COc1ccc(C(F)(F)F)cc1 [BC-010]

IC50 (TEAD [1]; [5]): 0.0724 µM
IC50 (H226 cancer cell): 0.488 µM
IC50 (H28 cancer cell line): > 10 µM
Structure (SMILES): COc1ccc(C(N)=O)cc1COc1ccc(C(F)(F)F)cc1 [BC-011]
Effect on viability (in words) (H28 cancer cell line; H28 cancer cell line): did not show any inhibitory effects
Ctgf mRNA expression [2]: significantly downregulated; also recorded: decreased
Cyr61 mRNA expression [2]: significantly downregulated; also recorded: decreased

IC50 (TEAD [1]; [5]): 8.9 µM
Structure (SMILES): COc1ccc(C(=O)O)cc1COc1ccc(C(F)(F)F)cc1 [BC-012]

IC50 (TEAD [1]; [5]): 0.417 µM
IC50 (H226 cancer cell): 2.25 µM
IC50 (H28 cancer cell line): 9.32 µM
Structure (SMILES): COC(=O)c1ccc(OC)c(COc2ccc(C(F)(F)F)cc2)c1 [BC-013]

Structure (SMILES): O=C(O)c1ccccc1Nc1cccc(Br)c1 [Bromofenamic acid, bromofenamic acid]
Kd (TEAD2): 234 µM

Structure (SMILES): COc1c(C)cc(N2C[C@@H](O)[C@@H](O)C2=O)cc1/C=C/c1ccc(Cl)cc1 [Compound 1 (Genentech)]
IC50 (TEAD [3]; [6]): 2.8 µM

Structure (SMILES): COc1ncc(NS(C)(=O)=O)cc1/C=C/C1CCC(F)(F)CC1 [Compound 2]
IC50 (TEAD [3]; [7]): 0.263 µM

Structure (SMILES): C[C@@H](CN(C)C)NC(=O)c1ccc2c(-c3ccc(C(F)(F)F)cc3)cccc2c1 [EX64]
IC50 (TEAD [4]; [8]): 1 to 3 µM

Structure (SMILES): O=C(O)c1ccccc1Nc1cccc(C(F)(F)F)c1 [Flufenamic acid, flufenamic acid]
Kd (TEAD2): 73 µM

Structure (SMILES): O=C(O)c1cnc2c(cnn2C2CCCC2)c1 [Fragment 1(Merck)]
IC50 (TEAD [3]; [6]): 16 µM

Structure (SMILES): C=CC(=O)Nc1ccc(C)c(Oc2ccc(Cl)cc2)c1 [K–975]
IC50 (TEAD [3]; [7]): < 0.1 µM

IC50 (TEAD [1]; [5]): 0.219 µM
IC50 (H226 cancer cell): 1.19 µM
IC50 (H28 cancer cell line): 1.72 µM
Structure (SMILES): O=C(CSc1nnc[nH]1)Nc1ccc(C23CC4CC(CC(C4)C2)C3)cc1 [MGH-CP1, reference compound]
IC50 (TEAD [3]; [7]): 1.92 µM

Structure (SMILES): Cn1cc2c3cc(C(=O)O)ccc3n(-c3ccc(C(F)(F)F)cc3)c2n1 [MSC-4106]
IC50 (TEAD [3]; [7]): 0.004 µM

Structure (SMILES): C=CC(=O)N1C[C@@H](n2cc(-c3cccnc3)nn2)[C@H](OCc2ccc(C(F)(F)F)cc2)C1 [MYF–03–69]
IC50 (TEAD [3]; [7]): 0.385 µM

Structure (SMILES): Cn1cc2c3cc(C(=O)O)ccc3n(-c3ccc(F)cc3)c2n1 [Merck_20]
IC50 (TEAD [4]; Merck compounds, ref 40 (WO2021224291A1)): 1.9 µM

Structure (SMILES): O=C(CCl)c1ccccc1Nc1cccc(C(F)(F)F)c1 [TED–347]
EC50 (TEAD [3]; reference compound of Figure 1): 5.9 ± 0.4 µM

Structure (SMILES): O=C(Nc1ccccc1)N1CCN(C(=O)c2cccc(OCCC3CCCCC3)c2)CC1 [TM2]
IC50 (TEAD [3]; [6]): 0.152 µM

Structure (SMILES): C[C@H](NC(=O)c1ccc2c(-c3ccc(C(F)(F)F)cc3)cccc2c1)c1ccccn1 [VT-104]
IC50 (TEAD [4]; [8]): 0.01 µM

Structure (SMILES): CC(NC(=O)c1cnc2c(-c3ccc(C(F)(F)F)cc3)cccc2c1)c1ccccn1 (centres unmarked) [VT-105]
IC50 (TEAD [3]; [7]): 0.0104 µM
